Here are results for two molecules from patent US20250042848A1, “DEUTERATED FUNCTIONALIZED DERIVATIVES OF alpha-ALANINE, IN [sequence] FOR THE TREATMENT OF NEUROLOGICAL DISEASES” (UNIWERSYTET JAGIELLONSKI, priority 2021, published 2025).

For series [1] the following is noted: mouse, in vivo, po, 40 mg/kg. How it is done: The animals were housed at a temperature of 22-24° C., humidity of 50% (+/−10%), in a room providing 15 air changes per hour, with 12:12 hours light-dark cycle. In addition, they had constant access to food and water. […] Blood was allowed to clot at room temperature for 20 min, then centrifuged for 5 min, 10,000×g (Eppendorf miniSpin centrifuge, Germany) to obtain serum. The obtained biological material was stored at −70° C. until analysis.
Concentrations of the tested compounds in murine serum and brain homogenates were determined by high-performance liquid chromatography-tandem mass spectrometry (HPLC-MS/MS). Analyzes were performed on a Sciex QTRAP 4500 triple quad mass spectrometer coupled to an Exion LC AC HPLC (Danaher Corporation, USA). The chromatographic separation was carried out on a Hypersil Gold™ C18 column (3×50 mm, 5 μm, Thermo Scientific, USA), using a mixture of acetonitrile and water with 0.1% formic acid as the mobile phase. Analyzes were performed at 40° C. and the gradient shown in Table 7 was used to obtain optimal retention time. Valsartan was used as an internal standard. Positive ionization mode (ESI+) was used for maximum sensitivity. […]
Non-compartmental analysis was used to estimate the pharmacokinetic parameters. Maximum concentration (Cmax) and time necessary to reach maximum blood concentration-tmax were evaluated directly from the concentration-time plot.

Series [2] deals with maximal electroshock seizures in mice. Put plainly: Maximal electroshock seizure test (MES). The format is in vivo. How it is done: (§1) Initial screening was performed on groups of 4 mice. The mean effective dose (ED50) in a given test and the neurotoxic dose in the rotarod test (TD50) were estimated on the basis of the results obtained on 3-4 groups of animals consisting of 6 animals.
In the maximal electroshock seizure test (MES), the seizures were induced by 500 V, 25 mA electrical stimulus of 0.2 s in duration. The electrical pulse was generated using an electric shock generator (Rodent shocker, Type 221, Hugo Sachs Elektronik, Germany) and delivered to the animal using electrodes placed on the auricles. The study was conducted 30 minutes/2 hours after intraperitoneal administration of the compounds at various doses. During the experiment, the number of animals that experienced a seizure episode in the form of hindlimb tonic extension was counted (Łuszczki, J.J. et al. Fundam. Clin. Pharmacol. 2008, 22, 69-74).
(§2) The ED50 (effective dose) and TD50 (toxic dose) values along with the corresponding 95% confidence limits were calculated based on the Litchfield and Wilcoxon method (Litchfield, J.T.; Wilcoxon, F. J. Pharmacol. Exp. Ther. 1949, 96, 99-113). To perform a statistical evaluation of the results in the scPTZ test, one-way ANOVA variance analysis followed by Dunnett's post hoc test were used. The values were considered statistically significant if p<0.05.

Series [3] relates to psychomotor seizures induced by a 32 mA, 6 Hz stimulus in mice. Put plainly: Psychomotor seizure test 6 Hz (32 mA). In kind it is in vivo. How it is done: as §1
(§3) In the psychomotor seizure test (6 Hz test), seizures were induced by a 32 mA and/or 44 mA electrical stimulus of a frequency of 6 pulses per second. An electrical pulse was generated using an electric shock generator (ECT Unit 57800; Ugo Basile, Gemonio, Italy) and delivered to the animal using corneal electrodes. Before starting the test, the eye surface was gently moistened with a solution of local anesthetic (1% lidocaine solution). The study was conducted 30 minutes/2 hours after intraperitoneal administration of the compounds at various doses. An electrical stimulus was delivered continuously for a period of 3 seconds, followed by observation of the animal for a period of 10 seconds. During the experiment, the number of animals with an episode of psychomotor convulsions was counted: motor inhibition, staggering, maintaining a sitting posture, forelimb clonus, twitching of the vibrissae and Straub-tail were observed (Leclercq, K.; Kaminski, R.M. Epilepsia 2015, 56, 310-318).
as §2

Series [4] concerns psychomotor seizures induced by a 44 mA, 6 Hz stimulus in mice. Kind of series: Psychomotor seizure test 6 Hz (44 mA). The format is in vivo. Conditions: in mg/kg. As to the method: as §1, §3, §2
Series [5] relates to motor coordination of mice. Put plainly: Rotarod test (motor coordination, acute neurotoxicity). Conditions: in mg/kg. The format is in vivo. As to the method:
as §1
The effect of the tested compounds on motor coordination was assessed in the rotarod test (May Commat, RR 0711 RotaRod, Turkey). The day before the actual experiment, the mice were trained on a rod rotating at 10 revolutions per minute (rpm) for 3 minutes. The experiment was performed 30 minutes and 2 hours after administration of the compounds. The motor coordination of the animals was tested at the speed of the rotating rod: 10 rpm for 60 seconds. The measure of neurotoxicity was the inability to stay on the rod for a given time (Łuszczki, J.J. et al. Eur. Neuropsychopharmacol. 2005, 6, 609-616).
as §2
Background: The rotarod test checks motor coordination on a turning rod.

In series [6] the test system is human liver microsomes (HLMs). Put plainly: In vitro metabolic stability, human liver microsomes. In kind it is in vitro ADME. The note with it: 120-minute incubation with HLMs. As to the method: Metabolic stability assessment was performed using mouse (MLMs) and human (HLMs) liver microsomes purchased from Sigma-Aldrich (St. Louis, MO, USA). The detailed methodology is described in the literature (Kamiński et al. J. Med. Chem. 2015, 58, 5274-5286). The reaction mixture was prepared by mixing […] of the tested compound with mouse or human microsomes (1 mg/mL) in 10 mM TRIS-HCl buffer. The reaction mixture was pre-incubated for 5 min at 37° C. After the initial incubation, 50 μL of the NADPH Regeneration System (Promega, Madison, WI, USA) was added to initiate the reaction. The reaction mixture was then incubated for 120 min at 37° C. 200 μL of cold extra pure methanol was added to complete the reaction. The mixture was then centrifuged at 14,000 g for 15 min and the supernatants were analyzed using a Waters ACQUITY™ TQD LC/MS system with a TQ detector (Waters, Milford, USA). Each experiment was performed in triplicate.

The test system of series [7] is motor coordination of mice. The note with it: in vivo; cited from earlier work.
Series [8] has as its system spontaneous locomotor activity of mice. The note with it: mouse, in vivo; cited from earlier work.
The test system of series [9] is human liver microsomes (HLMs). The note with it: cited from earlier work.
The next series deals with CYP3A4 (Homo sapiens, UniProt P08684). Conditions: cited from earlier work.
A further series deals with CYP2D9. The note with it: cited from earlier work.
The test system of series [10] is psychomotor seizures induced by a 32 mA, 6 Hz stimulus in mice. The note with it: 0.5 h, i.p.; own data disclosed in Abram et al. Bioorg. Chem. 2021; in mg/kg; cited from earlier work.
In series [11] the test system is pentylenetetrazole-induced clonic seizures in mice. The note with it: 0.5 h, i.p.; own data disclosed in Abram et al. Bioorg. Chem. 2021; in mg/kg; cited from earlier work.
The mark [12] stands for this setting: 0.5 h after i.p. administration.
The mark [13] stands for this setting: 2.0 h after i.p. administration.

Read-outs that look alike come from different tables or passages of the source. Some results are limits rather than exact numbers.

Chain of CYP3A4 (P08684 whole entry): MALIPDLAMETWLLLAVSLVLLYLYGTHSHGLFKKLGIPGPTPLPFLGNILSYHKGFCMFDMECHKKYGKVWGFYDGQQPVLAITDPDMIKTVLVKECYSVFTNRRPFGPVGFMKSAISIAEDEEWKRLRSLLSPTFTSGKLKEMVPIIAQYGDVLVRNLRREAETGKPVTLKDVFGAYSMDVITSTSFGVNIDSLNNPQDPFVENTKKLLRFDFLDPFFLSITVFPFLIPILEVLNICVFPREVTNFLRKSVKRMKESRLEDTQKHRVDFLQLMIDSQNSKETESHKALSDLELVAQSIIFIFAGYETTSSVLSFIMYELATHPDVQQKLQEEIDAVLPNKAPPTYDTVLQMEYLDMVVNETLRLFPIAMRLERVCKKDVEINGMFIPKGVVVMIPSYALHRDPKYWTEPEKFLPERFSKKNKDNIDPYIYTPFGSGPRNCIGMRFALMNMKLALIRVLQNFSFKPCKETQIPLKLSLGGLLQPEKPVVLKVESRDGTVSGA

As for `CC(C(=O)NCc1ccccc1F)N1C(=O)CCC1=O` (centres unmarked) [Compound 2, reference compound], the tmax in series [1] came to 30 min. Moreover, the ED50 MES in series [2] (setting [12]) was determined as 23.6 mg/kg; in series [2] (setting [13]) it was 73.3 mg/kg. Besides, the results for the ED50 6 Hz (32 mA) in series [3] (setting [12]) and in series [3] (setting [13]) were 16.7 mg/kg and 38.1 mg/kg, respectively. The “ED50 6 Hz (44 mA)” value amounted to 78.3 in series [4] (setting [12]) and 86.8 in series [4] (setting [13]). Also, the “TD50 Rotarod” value in [5] (setting [12]) is more than 100; in series [5] (setting [13]) it was more than 300. Moreover, in series [6], the metabolic stability result is recorded as “high metabolic stability”. Further, in [7], the “effect on mouse motor coordination in the rotarod test” value is listed as “minimal effect”. Besides, the “sedative effect in spontaneous locomotor activity test on mice” value in series [8] was “no sedative effect”. Moreover, the “metabolic stability on human microsomes” value in series [9] was “very high metabolic stability”. At CYP3A4, the “interaction with CYP3A4 isoform of cytochrome P-450” value is reported as “no interaction”. The “interaction with CYP2D9 isoform of cytochrome P-450” value with CYP2D9 is “no interaction”.
Consider `CCCC(CCC)C(=O)O` [VPA, valproic acid], for which, in series [10], the “ED50 6 Hz (32 mA)” value is reported as 130.6. The “ED50 scPTZ” value in series [11] is 239.4.
